From PubChem BioAssay AID1963873 (Molecular Pharmacology Branch, DTP, NCI, 2024)

System: 276233-004-R-J1-PDC KRAS spheroids with HUVEC/MSC, viability
Test: Anticancer human tumor 276233-004-R-J1-PDC patient-derived colon adenocarcinoma cell line growth inhibition [KRAS2]
Settings: for IC50: curve of first compound; for viability, T/C: stronger effect = lower value
Source text: Multicellular complex tumor spheroid response to RAS pathway inhibitors in combination with a targeted agents in patient-derived cell lines with oncogenic KRAS variants from multiple cancer types
A high-throughput screen of multi-cell type tumor spheroids was designed to identify active combinations of targeted small molecules and KRAS pathway inhibitors. Complex spheroids include a stromal component modeled by human endothelial cells (HUVEC) and fibroblasts modeled by human mesenchymal stem cells (MSCs). The concentration ranges selected for each drug and investigational agent were based upon clinically achievable concentrations if the clinical Cmax of the agent was known.
Compounds. The drugs and investigational agents: BI-3406 (NSC825286), BAY-293 (NSC824723), batoprotafib (TNO155; NSC825523), sotorasib (AMG 510; NSC818433), MRTX1257 (NSC819558), elimusertib (BAY 1895344; NSC800525), molibresib (GSK525762; NSC774829), temuterkib (LY3214996; NSC803410), venetoclax (NSC766270), alisertib (NSC759677), olaparib (NSC753686), talazoparib (NSC767125), erdafitinib (NSC781556), ipatasertib (NSC767898), cabozantinib (NSC761068), nintedanib (NSC756659), abemaciclib (NSC768073), docetaxel (NSC628503), trametinib (NSC758246), and sapanisertib (NSC764658) were obtained from the National Cancer Institute (NCI) Developmental Therapeutics Program Chemical Repository. The FDA-approved anticancer drug set is available from the Developmental Therapeutics Program. […] The stock solutions were prepared in dimethyl sulfoxide (DMSO, Sigma-Aldrich, St. Louis, MO, cat. D2650) at 800-fold the tested concentration and stored at -70 degrees C prior to their use. All drugs and investigational agents were tested over a range starting from a high concentration at or near the clinical Cmax and decreasing in half-log increments. If the clinical Cmax for an agent had not been determined, the highest concentration tested was 10 microM.
Cell Culture. All cells were maintained in an incubator at 37 degrees C and 5% CO2 with 95% humidity. The PDC lines were cultured according to standard operating procedures established by the NCI PDMR (https://pdmr.cancer.gov/sops/default.htm). Briefly, all PDCs were thawed and cultured in Matrigel-coated flasks prepared with a working solution of 1X Ham's F-12 nutrient mix, without supplementation (Invitrogen, Waltham, MA, cat. 11765054), 100 U/mL penicillin-streptomycin (Invitrogen, cat. 15140122), and 2.5% Matrigel (Corning Inc., Corning, NY, cat. 354248) for the first three passages. All PDCs were cultured in complete DMEM/F-12 media containing advanced DMEM/F-12 (Invitrogen, cat. 12634028), 4.9% defined fetal bovine serum, heat inactivated (HyClone Laboratories Inc., Logan, UT, cat. SH30070.03HI), 389 ng/mL hydrocortisone (Sigma-Aldrich, cat. H4001), 9.7 ng/mL human EGF recombinant protein (Invitrogen, cat. PHG0313), 23.4 microg/mL adenine (Sigma-Aldrich, cat. A2786), 97.3 U/mL penicillin-streptomycin (Invitrogen, cat. 15140122), 1.9 mM L-glutamine (Invitrogen, cat. 25030081), and 9.7 microM Y-27632 dihydrochloride (Tocris Bioscience, Bristol, United Kingdom, cat. 1254). The PDCs were cultured in complete DMEM/F12 media without 9.7 microM Y-27632 dihydrochloride for at least two passages prior to the screen. The established cell line HOP-62 was cultured in RPMI 1640 medium, HEPES (Invitrogen, cat. 22400105) with 10% defined fetal bovine serum (HyClone Laboratories Inc., cat. SH30070.03) and 2 mM L-glutamine (Invitrogen, cat. 25030081). The pooled donor HUVEC were cultured in endothelial cell growth medium 2 (PromoCell, Heidelberg, Germany, cat. C-22011) and the hMSC were cultured in mesenchymal stem cell growth medium 2 (PromoCell, cat. C-28009). For all experiments, HUVEC and hMSC were used at passages </=5, while the malignant cell lines were used at passages </=15. […]

[1] = second compound 0.1 µM, first compound 0.0316 µM
[2] = second compound 0.316 µM, first compound 0.0316 µM
[3] = second compound 1 µM, first compound 0.0316 µM
[4] = second compound 3.16 µM, first compound 0.0316 µM
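Further: cells exposed to agents for seven days before viability read.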
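Wherever viability, T/C is given: 100% = DMSO vehicle control wells and lower values mean fewer viable cells.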

## CC(=O)Nc1cccc(-n2c(=O)n(C3CC3)c(=O)c3c(Nc4ccc(I)cc4F)n(C)c(=O)c(C)c32)c1 + C=CC(=O)N1CCN(c2nc(OCC3CCCN3C)nc3c2CCN(c2cccc4cccc(C)c24)C3)CC1CC#N
Second compound 0.0316 µM
  IC50: 7.53 nM
Second compound 0.1 µM
  IC50: 9.05 nM
Second compound 0.316 µM
  IC50: 4.73 nM
Second compound 1 µM
  IC50: 2.49 nM
Second compound 3.16 µM
  IC50: 0.141 nM
Second compound 0.0316 µM, first compound 0.0001 µM
  viability, T/C: 79.5%
Second compound 0.0316 µM, first compound 0.000316 µM
  viability, T/C: 92.4%
Second compound 0.0316 µM, first compound 0.001 µM
  viability, T/C: 81.2%
Second compound 0.0316 µM, first compound 0.00316 µM
  viability, T/C: 66.9%
Second compound 0.0316 µM, first compound 0.01 µM
  viability, T/C: 44.9%
Second compound 0.0316 µM, first compound 0.0316 µM
  viability, T/C: 16.8%
Second compound 0.1 µM, first compound 0.0001 µM
  viability, T/C: 82.2%
Second compound 0.1 µM, first compound 0.000316 µM
  viability, T/C: 86.3%
Second compound 0.1 µM, first compound 0.001 µM
  viability, T/C: 72.8%
Second compound 0.1 µM, first compound 0.00316 µM
  viability, T/C: 63.1%
Second compound 0.1 µM, first compound 0.01 µM
  viability, T/C: 50.4%
[1]
  viability, T/C: 22.6%
Second compound 0.316 µM, first compound 0.0001 µM
  viability, T/C: 76.1%
Second compound 0.316 µM, first compound 0.000316 µM
  viability, T/C: 83.7%
Second compound 0.316 µM, first compound 0.001 µM
  viability, T/C: 61.6%
Second compound 0.316 µM, first compound 0.00316 µM
  viability, T/C: 64.7%
Second compound 0.316 µM, first compound 0.01 µM
  viability, T/C: 31.5%
[2]
  viability, T/C: 10%
Second compound 1 µM, first compound 0.0001 µM
  viability, T/C: 93.3%
Second compound 1 µM, first compound 0.000316 µM
  viability, T/C: 95.9%
Second compound 1 µM, first compound 0.001 µM
  viability, T/C: 60.6%
Second compound 1 µM, first compound 0.00316 µM
  viability, T/C: 47%
Second compound 1 µM, first compound 0.01 µM
  viability, T/C: 25.4%
[3]
  viability, T/C: 7%
Second compound 3.16 µM, first compound 0.0001 µM
  viability, T/C: 57.5%
Second compound 3.16 µM, first compound 0.000316 µM
  viability, T/C: 32.3%
Second compound 3.16 µM, first compound 0.001 µM
  viability, T/C: 16.7%
Second compound 3.16 µM, first compound 0.00316 µM
  viability, T/C: 14.7%
Second compound 3.16 µM, first compound 0.01 µM
  viability, T/C: 4.17%
[4]
  viability, T/C: 3.27%

## CC1OCC2(CCN(c3cnc(Sc4ccnc(N)c4Cl)c(N)n3)CC2)C1N (stereo not given) + COc1cc2nc(C)nc(NC(C)c3cc(N)cc(C(F)(F)F)c3)c2cc1OC1CCOC1
Second compound 0.1 µM
  IC50: > 10000 nM
Second compound 0.316 µM
  IC50: > 10000 nM
Second compound 1 µM
  IC50: > 10000 nM
Second compound 3.16 µM
  IC50: 5250 nM
Second compound 10 µM
  IC50: 41.1 nM
[1]
  viability, T/C: 93.6%
Second compound 0.1 µM, first compound 0.1 µM
  viability, T/C: 100%
Second compound 0.1 µM, first compound 0.316 µM
  viability, T/C: 70.5%
Second compound 0.1 µM, first compound 1 µM
  viability, T/C: 78%
Second compound 0.1 µM, first compound 3.16 µM
  viability, T/C: 62.9%
Second compound 0.1 µM, first compound 10 µM
  viability, T/C: 51.7%
[2]
  viability, T/C: 109%
Second compound 0.316 µM, first compound 0.1 µM
  viability, T/C: 79%
Second compound 0.316 µM, first compound 0.316 µM
  viability, T/C: 78.5%
Second compound 0.316 µM, first compound 1 µM
  viability, T/C: 62.7%
Second compound 0.316 µM, first compound 3.16 µM
  viability, T/C: 61.8%
Second compound 0.316 µM, first compound 10 µM
  viability, T/C: 57.2%
[3]
  viability, T/C: 91.5%
Second compound 1 µM, first compound 0.1 µM
  viability, T/C: 86.9%
Second compound 1 µM, first compound 0.316 µM
  viability, T/C: 81.4%
Second compound 1 µM, first compound 1 µM
  viability, T/C: 80.4%
Second compound 1 µM, first compound 3.16 µM
  viability, T/C: 55.1%
Second compound 1 µM, first compound 10 µM
  viability, T/C: 50.8%
[4]
  viability, T/C: 85.8%
Second compound 3.16 µM, first compound 0.1 µM
  viability, T/C: 77.8%
Second compound 3.16 µM, first compound 0.316 µM
  viability, T/C: 71.8%
Second compound 3.16 µM, first compound 1 µM
  viability, T/C: 70%
Second compound 3.16 µM, first compound 3.16 µM
  viability, T/C: 54%
Second compound 3.16 µM, first compound 10 µM
  viability, T/C: 42.7%
Second compound 10 µM, first compound 0.0316 µM
  viability, T/C: 52.4%
Second compound 10 µM, first compound 0.1 µM
  viability, T/C: 44.1%
Second compound 10 µM, first compound 0.316 µM
  viability, T/C: 34.4%
Second compound 10 µM, first compound 1 µM
  viability, T/C: 33.9%
Second compound 10 µM, first compound 3.16 µM
  viability, T/C: 24.2%
Second compound 10 µM, first compound 10 µM
  viability, T/C: 18.7%
